Test results published in patent US9394268B2, “(E)-1-(5-methoxy-2,2-dimethyl-2H-chromen-8-yl)-3-(4-methoxyphenyl)prop-2-en-1-one and analogs thereof, as well as preparation method and use thereof” (Sichuan University, priority 2012, dated 2016).

How the values were obtained:
Format in all cases: cell-based
LO2 = test: Cell proliferative assay (MTT), LO2; settings: Homo sapiens, L02, 72 h incubation, read-out: IC50s LO2
Experimental: (§1) The synthesized compounds were evaluated for their cytotoxin activity against suspended tumor cells. These cells were seeded on 96-well plates and incubated for 24 h. Selected compounds were added at various doses and incubated for 72 h, MTT was then added, and the absorbance was measured at a wavelength of 590 nm. IC50 values are expressed as the mean±SEM from the dose-response curves of at least three independent experiments.

SMMC-7221 = test: Cell proliferative assay (MTT), SMMC-7221; settings: 72 h incubation, read-out: IC50s SMMC-7221
Experimental: as §1

K562 = test: Cell proliferative assay (MTT), K562; settings: Homo sapiens, 72 h incubation, read-out: IC50s K562
Experimental: as §1

A375 = test: Cell proliferative assay (MTT), A375; settings: Homo sapiens, A-375, 72 h incubation, read-out: IC50s A375
Experimental: as §1

HepG2 = test: Cell proliferative assay (MTT), HepG2; settings: Homo sapiens, 72 h incubation, read-out: IC50s HepG2
Experimental: as §1

A549 = test: Cell proliferative assay (MTT), A549; settings: Homo sapiens, 72 h incubation, read-out: IC50s A549
Experimental: as §1

Structure (SMILES)	IC50 (LO2) [µM]	IC50 (SMMC-7221) [µM]	IC50 (K562) [µM]	IC50 (A375) [µM]	IC50 (HepG2) [µM]	IC50 (A549) [µM]
CCN(CC)c1ccc(/C=C/C(=O)c2ccc(OC(C)=O)c3c2OC(C)(C)C=C3)cc1 [SKLBC-48, (E)-8-(3-(4-(diethylamino)phenyl)acryloyl)-2,2-dimethyl-2H-chromen-5-yl acetate]	> 20	> 10	8.75	9.6	> 10	17.1
CCCCC(=O)Oc1ccc(C(=O)/C=C/c2ccc(N(CC)CC)cc2)c2c1C=CC(C)(C)O2 [SKLBC-51, (E)-8-(3-(4-(diethylamino)phenyl)acryloyl)-2,2-dimethyl-2H-chromen-5-ylpentanoate]	20	> 10	> 10	> 10	> 10	> 20
CCN(CC)c1ccc(/C=C/C(=O)c2ccc(OS(=O)(=O)C3CC3)c3c2OC(C)(C)C=C3)cc1 [SKLBC-53, (E)-8-(3-(4-(diethylamino)phenyl)acryloyl)-2,2-dimethyl-2H-chromen-5-yl cyclopropanesulfonate]	> 10	3.38	4.25	3.75	8.2	> 10
CCN(CC)c1ccc(/C=C/C(=O)c2ccc(OC(=O)C3C4C[C@H]5C[C@@H](C4)C[C@@H]3C5)c3c2OC(C)(C)C=C3)cc1 (some centres unmarked) [SKLBC-56, (1r,3r,5r,7r)-8-((E)-3-(4-(diethylamino)phenyl)acryloyl)-2,2-dimethyl-2H-chromen-5-yl adamantane-2-carboxylate]	> 10	0.59	–	> 10	9.45	9.1
COc1ccc(/C=C/C(=O)c2ccc(OC)c3c2OC(C)(C)C=C3)cc1OCCN1CCOCC1 [SKLBC-57, (E)-1-(5-methoxy-2,2-dimethyl-2H-chromen-8-yl)-3-(4-methoxy-3-(2-morpholinoethoxy)phenyl)prop-2-en-1-one]	> 20	> 10	> 10	> 10	> 10	> 10
COc1ccc(/C=C/C(=O)c2ccc(OC)c3c2OC(C)(C)C=C3)cc1OCCO [SKLBC-58, (E)-3-(3-(2-hydroxyethoxy)-4-methoxyphenyl)-1-(5-methoxy-2,2-dimethyl-2H-chromen-8-yl)prop-2-en-1-one]	> 10	1.32	0.5	0.67	0.226	0.58
COc1ccc(/C=C/C(=O)c2ccc(OC)c3c2OC(C)(C)C=C3)cc1OCCN1CCCC1 [SKLBC-59, (E)-1-(5-methoxy-2,2-dimethyl-2H-chromen-8-yl)-3-(4-methoxy-3-(2-(pyrrolidin-1-yl)ethoxy)phenyl)prop-2-en-1-one]	> 20	> 10	> 10	> 10	> 10	> 10
COc1ccc(/C=C/C(=O)c2ccc(OC)c3c2OC(C)(C)C=C3)cc1OCCN1CCCCC1 [SKLBC-60, (E)-1-(5-methoxy-2,2-dimethyl-2H-chromen-8-yl)-3-(4-methoxy-3-(2-(piperidin-1-yl)ethoxy)phenyl)prop-2-en-1-one]	> 20	> 10	> 10	> 10	> 10	> 10
COc1ccc(/C=C/C(=O)c2ccc(OC)c3c2OC(C)(C)C=C3)cc1OCCCN(C)C [SKLBC-61, (E)-3-(3-(3-(dimethylamino)propoxy)-4-methoxyphenyl)-1-(5-methoxy-2,2-dimethyl-2H-chromen-8-yl)prop-2-en-1-one]	> 10	1.15	0.58	1.05	0.44	0.44
COc1ccc(/C=C/C(=O)c2ccc(OC)c3c2OC(C)(C)C=C3)cc1OC(=O)Cc1cccc(C(F)(F)F)c1 [SKLBC-62, (E)-2-methoxy-5-(3-(5-methoxy-2,2-dimethyl-2H-chromen-8-yl)-3-oxoprop-1-en-1-yl)phenyl 2-(3-(trifluoromethyl)phenyl)acetate]	–	> 10	> 10	> 10	> 10	> 10
COc1cccc(C(=O)Oc2cc(/C=C/C(=O)c3ccc(OC)c4c3OC(C)(C)C=C4)ccc2OC)c1 [SKLBC-63, (E)-2-methoxy-5-(3-(5-methoxy-2,2-dimethyl-2H-chromen-8-yl)-3-oxoprop-1-en-1-yl)phenyl 3-methoxybenzoate]	–	> 10	> 10	> 10	> 10	> 10
COc1ccc(/C=C/C(=O)Oc2cc(/C=C/C(=O)c3ccc(OC)c4c3OC(C)(C)C=C4)ccc2OC)cc1 [SKLBC-64, (E)-2-methoxy-5-((E)-3-(5-methoxy-2,2-dimethyl-2H-chromen-8-yl)-3-oxoprop-1-en-1-yl)phenyl 3-(4-methoxyphenyl)acrylate]	–	> 10	> 10	> 10	> 10	> 10
COc1ccc(/C=C/C(=O)c2ccc(OC)c3c2OC(C)(C)C=C3)cc1OC(=O)CCCc1ccc(N(CCCl)CCCl)cc1 [SKLBC-65, (E)-2-methoxy-5-(3-(5-methoxy-2,2-dimethyl-2H-chromen-8-yl)-3-oxoprop-1-en-1-yl)phenyl 4-(4-(bis(2-chloroethyl)amino)phenyl)butanoate]	> 10	0.98	0.6	3.8	2.1	0.55
COc1ccc(/C=C/C(=O)c2ccc(OC)c3c2OC(C)(C)C=C3)cc1OC(=O)c1ccc(Br)cc1 [SKLBC-66, (E)-2-methoxy-5-(3-(5-methoxy-2,2-dimethyl-2H-chromen-8-yl)-3-oxoprop-1-en-1-yl)phenyl 4-bromobenzoate]	8.4	2.34	1.11	0.413	0.368	–
COc1ccc(/C=C/C(=O)c2ccc(OC)c3c2OC(C)(C)C=C3)cc1OC(=O)Cc1ccc(Cl)c(Cl)c1 [SKLBC-67, (E)-2-methoxy-5-(3-(5-methoxy-2,2-dimethyl-2H-chromen-8-yl)-3-oxoprop-1-en-1-yl)phenyl 2-(3,4-dichlorophenyl)acetate]	10	1.9	0.43	0.105	0.195	0.86
COc1ccc(/C=C/C(=O)c2ccc(OC)c3c2OC(C)(C)C=C3)cc1NCc1ccccc1 [SKLBC-90, (E)-3-(3-(benzylamino)-4-methoxyphenyl)-1-(5-methoxy-2,2-dimethyl-2H-chromen-8-yl)prop-2-en-1-one]	> 10	> 10	9.28	–	4.85	10
CCC(=O)Nc1cc(/C=C/C(=O)c2ccc(OC)c3c2OC(C)(C)C=C3)ccc1OC [SKLBC-93, (E)-N-(2-methoxy-5-(3-(5-methoxy-2,2-dimethyl-2H-chromen-8-yl)-3-oxoprop-1-en-1-yl)phenyl)propionamide]	7.8	5.1	2.4	–	4.55	> 10
